Experimental data: patent publication US12630532B2, “Indole-substituted quinolines and their combination with Plk1 inhibitors for the treatment of cancer” (UNIVERSITY OF KENTUCKY RESEARCH FOUNDATION, priority 2021, dated 2026)

System: LS174T cells
Assay: Cell proliferation inhibition assay (5 days, cell counting)
Type: cell-based
Conditions: for inhibition at 0.062 µM / inhibition at 0.125 µM / inhibition at 0.25 µM / inhibition at 0.5 µM / IC50 / inhibition at 3 µM / inhibition at 1 µM / inhibition at 0.3 µM: Homo sapiens, LS174T; for inhibition at 0.062 µM / inhibition at 0.125 µM / inhibition at 0.25 µM / inhibition at 0.5 µM: 120 h; for inhibition at 0.062 µM: 62 nM; for inhibition at 0.125 µM: 125 nM; for IC50: dose response studies, read-out: IC50 values in cell proliferation assays; for inhibition at 3 µM: read-out: Inhibition % on LS174T cells Proliferation 3 uM Inhib. %; for inhibition at 1 µM: read-out: Inhibition % on LS174T cells Proliferation 1 uM Inhib. %; for inhibition at 0.3 µM: read-out: Inhibition % on LS174T cells Proliferation 0.3 uM Inhib. %
Experimental: Cell proliferation inhibition assays were done following a previous report (32). Cancer cells were seeded into 24-well plates at a density of 20,000 cells per well in 1 mL of culture medium and were cultured overnight at 37° C. Compounds and the vehicle control (DMSO) were added to the cells. After 5 days, the medium was removed, and 100 μL of trypsin was added. The cells were resuspended in phosphate-buffered saline (PBS) and were counted by Vi-CELL XR 2.03 (Beckman Coulter, Inc. USA). The ratio R of the number of viable cells in the compound treatment group to the number of viable cells in DMSO treatment group was taken as relative growth, and the percentage growth inhibition was calculated as (1−R)*100.

## 3-(1-Methyl-1H-indol-3-yl)-7-(4-methylpiperazin-1-yl)quinolin-2-amine [ISQ-3]
250 nM, 5 days
  Inhibition % on LS174T cells Proliferation 250 nM: 27 ± 14%
0.3 uM
  Inhibition % on LS174T cells Proliferation 0.3 uM Inhib. %: 73.9%
500 nM, 5 days
  Inhibition % on LS174T cells Proliferation 500 nM: 89 ± 2.1%
1 uM
  Inhibition % on LS174T cells Proliferation 1 uM Inhib. %: 95.5%
3 uM
  Inhibition % on LS174T cells Proliferation 3 uM Inhib. %: 99.7%

## Cn1cc(-c2cc3ccc(N4CCCCC4)cc3nc2N)c2ccccc21 [ISQ-2, 3-(1-Methyl-1H-indol-3-yl)-7-(piperidin-1-yl)quinolin-2-amine]
5 days
  inhibition at 0.062 µM: 8.2 ± 5.6%
  inhibition at 0.125 µM: 28 ± 4.6%
250 nM, 5 days
  inhibition at 0.25 µM: 55 ± 0.5%
500 nM, 5 days
  inhibition at 0.5 µM: 97 ± 0.4%

## CC(C)C1CCN(c2ccc3cc(-c4cn(C)c5ccccc45)c(N)nc3c2)CC1 [ISQ-4, 7-(4-Isopropylpiperidin-1-yl)-3-(1-methyl-1H-indol-3-yl)quinolin-2-amine]
500 nM, 5 days
  inhibition at 0.5 µM: 36 ± 0.9%

## Cn1cc(-c2cc3ccc(N4CCC(Cc5ccccc5)CC4)cc3nc2N)c2ccccc21 [ISQ-5, 7-(4-Benzylpiperidin-1-yl)-3-(1-methyl-1H-indol-3-yl)quinolin-2-amine]
500 nM, 5 days
  inhibition at 0.5 µM: 21 ± 3.9%

## Cn1cc(-c2cc3ccc(N4CCC(c5ccccc5)CC4)cc3nc2N)c2ccccc21 [ISQ-6, 3-(1-Methyl-1H-indol-3-yl)-7-(4-phenylpiperidin-1-yl)quinolin-2-amine]
500 nM, 5 days
  inhibition at 0.5 µM: 56 ± 13.1%

## Cn1cc(-c2cc3ccc(N4CCC(CO)CC4)cc3nc2N)c2ccccc21 [ISQ-8, (1-(2-Amino-3-(1-methyl-1H-indol-3-yl)quinolin-7-yl)piperidin-4-yl)methanol]
500 nM
  percentage inhibition of LS174T cell proliferation at 500 nM, compared among ISQs (FIG. 2B): comparable to the N,N-dimethylamino group in ISQ-1
5 days
  inhibition at 0.062 µM: 20 ± 9%
  inhibition at 0.125 µM: 59 ± 2.7%
250 nM, 5 days
  inhibition at 0.25 µM: 97 ± 0.2%
500 nM, 5 days
  inhibition at 0.5 µM: 98 ± 0.6%
  IC50: ~100 nM

## COCC1CCN(c2ccc3cc(-c4cn(C)c5ccccc45)c(N)nc3c2)CC1 [ISQ-9, 7-(4-(Methoxymethyl)piperidin-1-yl)-3-(1-methyl-1H-indol-3-yl)quinolin-2-amine]
500 nM
  percentage inhibition of LS174T cell proliferation at 500 nM, compared among ISQs (FIG. 2B): comparable to the N,N-dimethylamino group in ISQ-1
5 days
  inhibition at 0.062 µM: 12 ± 1.9%
  inhibition at 0.125 µM: 55 ± 2.3%
250 nM, 5 days
  inhibition at 0.25 µM: 98%
500 nM, 5 days
  inhibition at 0.5 µM: 99 ± 0.1%
  IC50: ~100 nM

## Cn1cc(-c2cc3ccc(N4CCC(c5ccncc5)CC4)cc3nc2N)c2ccccc21 [ISQ-10, 3-(1-Methyl-1H-indol-3-yl)-7-(4-(pyridin-4-yl)piperidin-1-yl)quinolin-2-amine]
500 nM
  percentage inhibition of LS174T cell proliferation at 500 nM, compared among ISQs (FIG. 2B): comparable to the N,N-dimethylamino group in ISQ-1
5 days
  inhibition at 0.062 µM: 21 ± 5.7%
  inhibition at 0.125 µM: 84 ± 2.7%
250 nM, 5 days
  inhibition at 0.25 µM: 99 ± 13.1%
500 nM, 5 days
  inhibition at 0.5 µM: 99 ± 0.1%
  IC50: ~100 nM

## CN(C)c1ccc2cc(-c3nc4ccc(F)cc4s3)c(N)nc2c1 [LMK-5-52]
  inhibition at 3 µM: 97%

## CN(C)c1ccc2cc(-c3nc4ccc(Cl)cc4s3)c(N)nc2c1 [LMK-5-55]
  inhibition at 3 µM: 97.6%

## CN(C)c1ccc2cc(-c3nc4cc(C(C)(C)C)ccc4o3)c(N)nc2c1 [LMK-5-60]
  inhibition at 3 µM: 91.5%

## COc1ccc2nc(-c3cc4ccc(N(C)C)cc4nc3N)sc2c1 [LMK-5-62]
  inhibition at 3 µM: 85.5%

## CN(C)c1ccc2cc(-c3nc(-c4ccc(Br)cc4)cs3)c(N)nc2c1 [LMK-5-66]
  inhibition at 1 µM: 45%
  inhibition at 3 µM: 98.9%

## CN(C)c1ccc2cc(-c3nc(-c4ccccc4)cs3)c(N)nc2c1 [LMK-5-67]
  inhibition at 1 µM: 96.9%
  inhibition at 3 µM: 99.8%

## COc1ccc(-c2csc(-c3cc4ccc(N(C)C)cc4nc3N)n2)cc1 [LMK-5-68]
  inhibition at 1 µM: 24.2%
  inhibition at 3 µM: 94.3%

## Nc1nc2cc(N3CCOCC3)ccc2cc1-c1cc(Cl)cc(Cl)c1 [LMK-5-276]
  inhibition at 1 µM: 35%
  inhibition at 3 µM: 65.2%

## CN1CCN(c2ccc3cc(-c4cc(Cl)cc(Cl)c4)c(N)nc3c2)CC1 [LMK-5-278]
  inhibition at 1 µM: 27.9%
  inhibition at 3 µM: 87.7%

## Nc1nc2cc(N3CCCCC3)ccc2cc1-c1cc(Cl)cc(Cl)c1 [LMK-5-279]
  inhibition at 1 µM: 46.6%
  inhibition at 3 µM: 87.6%

## Nc1nc2cc(N3CCCC3)ccc2cc1-c1cc(Cl)cc(Cl)c1 [LMK-5-280]
  inhibition at 0.3 µM: 31%
  inhibition at 1 µM: 93.1%
  inhibition at 3 µM: 97.7%

## Cn1cc(-c2cc3ccc(N4CCOCC4)cc3nc2N)c2ccccc21 [LMK-5-281]
  inhibition at 0.3 µM: 30.9%
  inhibition at 1 µM: 93.7%
  inhibition at 3 µM: 98.1%

## CN1CCN(c2ccc3cc(-c4cn(C)c5ccccc45)c(N)nc3c2)CC1 [LMK-5-282]
  inhibition at 1 µM: 25.2%
  inhibition at 3 µM: 83.7%

## Nc1nc2cc(N3CCOCC3)ccc2cc1-c1ccccc1F [LMK-5-284]
  inhibition at 1 µM: 20.6%
  inhibition at 3 µM: 85.6%

## Nc1nc2cc(N3CCCCC3)ccc2cc1-c1ccccc1F [LMK-5-286]
  inhibition at 0.3 µM: 21.9%
  inhibition at 1 µM: 96%
  inhibition at 3 µM: 97%

## CC(C)C1CCN(c2ccc3cc(-c4ccccc4F)c(N)nc3c2)CC1 [LMK-6-84]
500 nM, 5 days
  inhibition at 0.5 µM: 79 ± 5.7%

## Nc1nc2cc(N3CCC(c4ccccc4)CC3)ccc2cc1-c1ccccc1F [LMK-6-89]
5 days
  inhibition at 0.062 µM: 2 ± 3%
  inhibition at 0.125 µM: 20 ± 0.6%
250 nM, 5 days
  inhibition at 0.25 µM: 23 ± 3.8%
500 nM, 5 days
  inhibition at 0.5 µM: 89 ± 1%

## Nc1nc2cc(N3CCC(Cc4ccccc4)CC3)ccc2cc1-c1ccccc1F [LMK-6-91]
500 nM, 5 days
  inhibition at 0.5 µM: 14 ± 1.2%

## N#CC1CCN(c2ccc3cc(-c4ccccc4F)c(N)nc3c2)CC1 [LMK-6-99]
5 days
  inhibition at 0.062 µM: 2 ± 0.2%
  inhibition at 0.125 µM: 9 ± 2.2%
250 nM, 5 days
  inhibition at 0.25 µM: 17 ± 0.1%
500 nM, 5 days
  inhibition at 0.5 µM: 64 ± 3.5%

## COCC1CCN(c2ccc3cc(-c4ccccc4F)c(N)nc3c2)CC1 [LMK-6-109]
5 days
  inhibition at 0.062 µM: 16 ± 8.4%
  inhibition at 0.125 µM: 29 ± 0.3%
250 nM, 5 days
  inhibition at 0.25 µM: 70 ± 8.8%
500 nM, 5 days
  inhibition at 0.5 µM: 94 ± 0.1%

## Nc1nc2cc(N3CCC(CO)CC3)ccc2cc1-c1ccccc1F [LMK-6-117]
5 days
  inhibition at 0.062 µM: 12 ± 1.4%
  inhibition at 0.125 µM: 12 ± 0.7%
250 nM, 5 days
  inhibition at 0.25 µM: 32 ± 10.5%
500 nM, 5 days
  inhibition at 0.5 µM: 59 ± 0.3%

## CN(C)c1ccc2cc(-c3ccc(Cl)c(Cl)c3)c(N)nc2c1 [VMS-4-57]
  inhibition at 0.3 µM: 26.7%
  inhibition at 1 µM: 57.8%
  inhibition at 3 µM: 74.3%

## CN(C)c1ccc2cc(-c3cc(Cl)cc(Cl)c3)c(N)nc2c1 [VMS-4-103]
  inhibition at 3 µM: 86.4%

## CN(C)c1ccc2cc(-c3nc4ccccc4s3)c(N)nc2c1 [VMS-7-1]
  inhibition at 3 µM: 95.3%

## CN(C)c1ccc2cc(-c3csc4ccccc34)c(N)nc2c1 [VMS-7-3]
  inhibition at 3 µM: 96.7%

## CN(C)c1ccc2cc(-c3coc4ccccc34)c(N)nc2c1 [VMS-7-7]
  inhibition at 0.3 µM: 87.2%
  inhibition at 1 µM: 97.8%
  inhibition at 3 µM: 96.8%

## COc1ccc2c(c1)c(-c1cc3ccc(N(C)C)cc3nc1N)cn2C [VMS-7-29]
  inhibition at 3 µM: 99.3%

## CNc1ccc2cc(-c3cc(Cl)cc(Cl)c3)c(N)nc2c1 [VMS-8-65]
  inhibition at 3 µM: 97.2%

## CNc1ccc2cc(-c3cn(C)c4ccccc34)c(N)nc2c1 [VMS-8-67]
  inhibition at 3 µM: 96.9%
